Data reported in ChEMBL document CHEMBL5223174, “Design, synthesis, and biological evaluation of novel N-Benzyl piperidine derivatives as potent HDAC/AChE inhibitors for Alzheimer's disease” (Bioorg Med Chem, 2023).

Columns and labels:
Histone deacetylase = format: cell-based, Homo sapiens; details: hela
Description: Inhibition of HDAC in human HeLa cell extracts

Acetylcholinesterase = Acetylcholinesterase (Electrophorus electricus, UniProt O42275); test: Inhibition of electric eel AChE
Cholinesterase = Cholinesterase (Equus caballus, UniProt P81908); test: Inhibition of equine serum BChE; format: cell-free
[1] = Selectivity index, ratio of IC50 for equine serum BChE to IC50 for electric eel AChE

Chain of Acetylcholinesterase (O42275 whole entry): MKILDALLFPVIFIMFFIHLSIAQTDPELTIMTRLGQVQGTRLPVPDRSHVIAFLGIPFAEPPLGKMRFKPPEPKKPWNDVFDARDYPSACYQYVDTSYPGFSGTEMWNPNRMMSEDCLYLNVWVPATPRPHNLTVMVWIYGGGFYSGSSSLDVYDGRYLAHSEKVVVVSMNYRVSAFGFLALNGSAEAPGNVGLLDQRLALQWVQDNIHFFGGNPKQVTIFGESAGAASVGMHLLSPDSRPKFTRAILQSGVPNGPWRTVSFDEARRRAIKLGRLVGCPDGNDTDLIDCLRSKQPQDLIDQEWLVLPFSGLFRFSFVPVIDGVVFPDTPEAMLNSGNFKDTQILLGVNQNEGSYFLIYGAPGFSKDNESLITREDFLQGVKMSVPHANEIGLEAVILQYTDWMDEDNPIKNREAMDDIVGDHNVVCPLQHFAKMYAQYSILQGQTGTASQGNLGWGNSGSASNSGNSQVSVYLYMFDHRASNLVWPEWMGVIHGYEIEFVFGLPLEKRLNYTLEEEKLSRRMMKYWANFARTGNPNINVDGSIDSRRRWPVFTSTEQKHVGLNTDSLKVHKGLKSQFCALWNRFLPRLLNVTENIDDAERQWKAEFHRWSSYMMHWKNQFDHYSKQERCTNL
Chain of Cholinesterase (P81908 whole entry): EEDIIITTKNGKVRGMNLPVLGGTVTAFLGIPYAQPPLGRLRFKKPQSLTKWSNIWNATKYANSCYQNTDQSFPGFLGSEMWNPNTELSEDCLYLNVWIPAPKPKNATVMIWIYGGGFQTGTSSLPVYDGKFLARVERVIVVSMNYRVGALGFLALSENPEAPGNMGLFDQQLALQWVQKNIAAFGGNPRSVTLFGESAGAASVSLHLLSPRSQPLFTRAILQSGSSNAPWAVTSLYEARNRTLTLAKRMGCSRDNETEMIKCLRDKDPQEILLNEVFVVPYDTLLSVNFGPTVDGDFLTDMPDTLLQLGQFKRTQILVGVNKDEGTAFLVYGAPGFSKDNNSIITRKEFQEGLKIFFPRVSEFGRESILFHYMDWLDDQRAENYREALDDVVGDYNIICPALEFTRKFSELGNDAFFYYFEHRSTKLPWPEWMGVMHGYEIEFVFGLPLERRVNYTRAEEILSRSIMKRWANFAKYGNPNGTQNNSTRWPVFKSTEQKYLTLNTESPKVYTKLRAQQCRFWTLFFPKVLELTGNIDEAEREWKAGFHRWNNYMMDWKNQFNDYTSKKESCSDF

Row | Compound | IC50 (Histone deacetylase) | IC50 (Acetylcholinesterase; read-out: IC50) | IC50 (Cholinesterase; read-out: IC50) | IC50 (Cholinesterase) | Ratio IC50 [1] | IC50 (Acetylcholinesterase)
1 | O=C(NO)c1ccc(CNCC2CCN(Cc3ccccc3)CC2)cc1 | 1.42 µM | 6.03 µM | 13.2 µM |  |  | 
2 | O=C(NO)c1ccc(C(=O)NCC2CCN(Cc3ccccc3)CC2)cc1 | 0.14 µM | 39.7 µM | 3.28 µM |  |  | 
3 | COc1cc(/C=C/C(=O)Nc2ccccc2N)ccc1C(=O)NCC1CCN(Cc2ccccc2)CC1 | 1.25 µM | 8.89 µM | 6.56 µM |  |  | 
4 | COc1cc(/C=C/C(=O)NO)ccc1C(=O)NCC1CCN(Cc2ccccc2)CC1 | 0.02 µM | 24.6 µM | 25.2 µM |  |  | 
5 | O=C(NO)c1ccc(S(=O)(=O)NCC2CCN(Cc3ccccc3)CC2)cc1 | 0.45 µM | 3.22 µM |  | Not Active | > 10 | 
6 | O=C(CCc1ccc(C(=O)NO)cc1)NCC1CCN(Cc2ccccc2)CC1 | > 10 µM |  |  | Not Active |  | Not Active
7 | O=C(NO)c1cccc(C(=O)NCC2CCN(Cc3ccccc3)CC2)c1 | 0.8 µM |  |  | Not Active |  | Not Active
8 | Nc1ccccc1NC(=O)CCc1cccc(C(=O)NCC2CCN(Cc3ccccc3)CC2)c1 | 1.2 µM | 9.97 µM | 9.49 µM |  |  | 
9 | Nc1ccccc1NC(=O)c1cccc(C(=O)NCC2CCN(Cc3ccccc3)CC2)c1 | 2.13 µM | 32.6 µM | 7.96 µM |  |  | 
10 | Nc1ccccc1NC(=O)CCCCCCC(=O)NCC1CCN(Cc2ccccc2)CC1 | > 10 µM |  |  | Not Active |  | Not Active
11 | Nc1ccccc1NC(=O)CCCCCCCC(=O)NCC1CCN(Cc2ccccc2)CC1 | 1.14 µM | 11.5 µM | 13.8 µM |  |  | 
12 | Nc1ccccc1NC(=O)c1ccc(/C=C/C(=O)NCC2CCN(Cc3ccccc3)CC2)cc1 | > 10 µM | 2.12 µM | 15.6 µM |  | > 10 | 
13 | O=C(CCCCCC(=O)NCC1CCN(Cc2ccccc2)CC1)NO | > 10 µM | 32.8 µM |  | Not Active |  | 
14 | Nc1ccccc1NC(=O)/C=C/c1cccc(C(=O)NCC2CCN(Cc3ccccc3)CC2)c1 | 1.62 µM |  |  | Not Active |  | Not Active
15 | O=C(/C=C/c1ccc(C(=O)NCC2CCN(Cc3ccccc3)CC2)cc1)NO | 0.28 µM | 8.18 µM |  | Not Active | > 10 | 
16 | Nc1ccccc1NC(=O)CCc1ccc(C(=O)NCC2CCN(Cc3ccccc3)CC2)cc1 | 0.46 µM | 9.13 µM | 13.4 µM |  |  | 

Row | Compound | IC50 (Histone deacetylase) | IC50 (Acetylcholinesterase; read-out: IC50) | IC50 (Cholinesterase; read-out: IC50) | IC50 (Cholinesterase) | Ratio IC50 [1] | IC50 (Acetylcholinesterase)
17 | COc1cc(CCC(=O)Nc2ccccc2N)ccc1C(=O)NCC1CCN(Cc2ccccc2)CC1 | > 10 µM | 31.3 µM | 10.6 µM |  |  | 
18 | O=C(CCc1ccc(C(=O)NCC2CCN(Cc3ccccc3)CC2)cc1)NO | 1 µM |  |  | Not Active |  | Not Active
19 | O=C(CCCCCCCC(=O)NCC1CCN(Cc2ccccc2)CC1)NO | 0.43 µM | 26.2 µM | 13.7 µM |  |  | 
20 | Nc1ccccc1NC(=O)/C=C/c1ccc(C(=O)NCC2CCN(Cc3ccccc3)CC2)cc1 | 0.18 µM | 13.8 µM |  | Not Active |  | 
21 | Nc1ccccc1NC(=O)c1ccc(CNCC2CCN(Cc3ccccc3)CC2)cc1 | > 10 µM | 9.84 µM | 12.6 µM |  |  | 
22 | Nc1ccccc1NC(=O)c1ccc(S(=O)(=O)NCC2CCN(Cc3ccccc3)CC2)cc1 | > 10 µM | 0.49 µM |  | Not Active | > 102 | 
23 | O=C(/C=C/c1cccc(C(=O)NCC2CCN(Cc3ccccc3)CC2)c1)NO | 0.067 µM | 14.6 µM |  | Not Active |  | 
24 | O=C(/C=C/c1ccc(C(=O)NO)cc1)NCC1CCN(Cc2ccccc2)CC1 | 2.1 µM | 4.07 µM |  | Not Active | > 10 | 
25 | O=C(NO)c1cccc(S(=O)(=O)NCC2CCN(Cc3ccccc3)CC2)c1 | 6.8 µM | 19.2 µM |  | Not Active |  | 
26 | O=C(CCc1cccc(C(=O)NCC2CCN(Cc3ccccc3)CC2)c1)NO | 0.47 µM |  |  | Not Active |  | Not Active
27 | Nc1ccccc1NC(=O)c1ccc(CCC(=O)NCC2CCN(Cc3ccccc3)CC2)cc1 | > 10 µM | 12.4 µM |  | Not Active |  | 
28 | Nc1ccccc1NC(=O)c1cccc(S(=O)(=O)NCC2CCN(Cc3ccccc3)CC2)c1 | 1.28 µM | 7.41 µM | 5.23 µM |  |  | 
29 | O=C(CCCCCCC(=O)NCC1CCN(Cc2ccccc2)CC1)NO | 0.59 µM |  | 1.62 µM |  |  | Not Active
30 | COc1cc(CCC(=O)NO)ccc1C(=O)NCC1CCN(Cc2ccccc2)CC1 | 0.17 µM | 6.89 µM |  | Not Active | > 10 | 
31 | Nc1ccccc1NC(=O)CCCCCC(=O)NCC1CCN(Cc2ccccc2)CC1 | > 10 µM | 7.06 µM | 6.19 µM |  |  | 
